Laboratory results from patent publication US20230241243A1, “CARRIER PARTICLE-DRUG CONJUGATES, SELF-IMMOLATIVE LINKERS, AND USES THEREOF” (priority 2020, published 2023).
Where a name gives a salt, the structure may show the parent alone.

Test system: Human KB cells
Assay: Cell viability assay of payloads (CellTiter-Glo 2.0)
Type: cell-based
Conditions: Homo sapiens, KB, 168 h, read-out: IC50 values (diluted in RPMI medium)
Protocol: Method: Human KB cells (ATCC® CCL-17™) were cultured in folic acid free rpmi-1640 medium (ThermoFisher, GIBCO) for at least 7 days before the study. The cells were seeded in opaque 96-well plates and allowed to attach overnight (cell density was carefully controlled to be 3,000 cells per well at the time of assay). After that, cells were treated with drug analogs (suspended in the same RPMI-1640 medium) at a concentration of zero to 1,000 nM. After 7 days, cell viability was assessed using the CellTiter-Glo® 2.0 assay (Promega) according to the manufacturer's instructions. The percent of viable cells at each concentration was calculated by normalizing the luminescence values to the untreated control. The half-maximal inhibitory concentration (IC50) of the payloads were plotted and fitted by using the Prism 8 software (GraphPad). Table 2 provides the IC50 of the payloads of the present disclosure (‘+’ indicates 1-9.9 nm; ‘++’ indicates 10-100 nm).

SMILES	IC50
CCc1c2c(nc3ccc(OCCCN)cc13)-c1cc3c(c(=O)n1C2)COC(=O)[C@]3(O)CC [Example 105]	1 to 9.9 nM
CCc1c2c(nc3ccc(OCCCSC(C)=O)cc13)-c1cc3c(c(=O)n1C2)COC(=O)[C@]3(O)CC [Example 327]	10 to 100 nM
CCc1c2c(nc3ccc(OCCCSSC(C)(C)CN)cc13)-c1cc3c(c(=O)n1C2)COC(=O)[C@]3(O)CC [Example 331]	10 to 100 nM
CC[C@@]1(O)C(=O)OCc2c1cc1n(c2=O)Cc2c-1nc1cc(F)c(C)c3c1c2[C@@H](Nc1nc(Cl)nc(NCCSSC(C)(C)CN)n1)CC3 [Example 377, (1S,9S)-1-((4-((2-((1-amino-2-methylpropan-2-yl)disulfaneyl)ethyl)amino)-6-chloro-1,3,5-triazin-2-yl)amino)-9-ethyl-5-fluoro-9-hydroxy-4-methyl-1,2,3,9,12,15-hexahydro-10H,13H-benzo[de]pyrano[3′,4′:6,7]indolizino[1,2-b]quinoline-10,13-dione 2,2,2-trifluoroacetate]	10 to 100 nM
CCc1c2c(nc3ccc(OCC(=O)NN)cc13)-c1cc3c(c(=O)n1C2)COC(=O)[C@]3(O)CC [Example 385, (S)-2-((4,11-diethyl-4-hydroxy-3,14-dioxo-3,4,12,14-tetrahydro-1H-pyrano[3′,4′:6,7]indolizino[1,2-b]quinolin-9-yl)oxy)acetohydrazide]	10 to 100 nM
CC[C@]1(O)C(=O)OCc2c1cc1n(c2=O)Cc2c-1nc1cc(F)c(C)c3c1c2[C@H](NC(=O)C(C)(C)C(=O)NN)CC3 [Example 410, N-((1R,9R)-9-ethyl-5-fluoro-9-hydroxy-4-methyl-10,13-dioxo-2,3,9,10,13,15-hexahydro-1H,12H-benzo[de]pyrano[3′,4′:6,7]indolizino[1,2-b]quinolin-1-yl)-3-hydrazineyl-2,2-dimethyl-3-oxopropanamide]	10 to 100 nM
CCc1c2c(nc3ccc(OC(C)(C)C(=O)NN)cc13)-c1cc3c(c(=O)n1C2)COC(=O)[C@]3(O)CC [Example 422, (S)-2-((4,11-diethyl-4-hydroxy-3,14-dioxo-3,4,12,14-tetrahydro-1H-pyrano[3′,4′:6,7]indolizino[1,2-b]quinolin-9-yl)oxy)-2-methylpropanehydrazide]	10 to 100 nM
CC[C@@]1(O)C(=O)OCc2c1cc1n(c2=O)Cc2c-1nc1cc(F)c(C)c3c1c2[C@@H](NC(=O)CS)CC3 [Example 452, N-((1S,9S)-9-ethyl-5-fluoro-9-hydroxy-4-methyl-10,13-dioxo-2,3,9,10,13,15-hexahydro-1H,12H-benzo[de]pyrano[3′,4′:6,7]indolizino[1,2-b]quinolin-1-yl)-2-mercaptoacetamide]	10 to 100 nM
CC[C@@]1(O)C(=O)OCc2c1cc1n(c2=O)Cc2c-1nc1cc(F)c(C)c3c1c2[C@@H](NC(=O)CSSC(C)(C)CN)CC3 [Example 454, 2-((1-amino-2-methylpropan-2-yl)disulfaneyl)-N-((1S,9S)-9-ethyl-5-fluoro-9-hydroxy-4-methyl-10,13-dioxo-2,3,9,10,13,15-hexahydro-1H,12H-benzo[de]pyrano[3′,4′:6,7]indolizino[1,2-b]quinolin-1-yl)acetamide 2,2,2-trifluoroacetic acid salt]	10 to 100 nM
CC[C@@]1(O)C(=O)OCc2c1cc1n(c2=O)Cc2c-1nc1cc(F)c(C)c3c1c2[C@@H](NC(=O)C(O)c1ccc(N)cc1)CC3 (stereo partly drawn) [Example 458, 2-(4-aminophenyl)-N-((1S,9S)-9-ethyl-5-fluoro-9-hydroxy-4-methyl-10,13-dioxo-2,3,9,10,13,15-hexahydro-1H,12H-benzo[de]pyrano[3′,4′:6,7]indolizino[1,2-b]quinolin-1-yl)-2-hydroxyacetamide]	1 to 9.9 nM
